# Values of other authors, collected in patent US20240139186A1, “METHODS OF TREATING HIV” (Janssen Sciences Ireland Unlimited Company, priority 2019, published 2024).
# Conditions: adult and pediatric participants receiving abacavir in clinical studies
compound,measurement,value
Nc1nc(NC2CC2)c2ncn([C@H]3C=C[C@@H](CO)C3)c2n1 [abacavir],"hypersensitivity reactions reported, proportion of participants",approximately 5%
